Measured values from PMC6556873, “Rapid Covalent-Probe Discovery by Electrophile-Fragment Screening” (Journal of the American Chemical Society, 2019).
Like-named read-outs stand apart in the source and are kept apart here.

Columns and labels:
in vitro [1] = experiment: in vitro; parameters: species or system CCD841, HEK293; conditions: human, hb2 cells, read-out: HB-2 Cells Viability (%)
in vitro [2] = experiment: in vitro; parameters: species or system HB2, CCD841; conditions: human, hek293 cells
NUDT7 = target: T1, NUDT7 (Homo sapiens, UniProt P0C024); parameters: Intact protein LC/MS covalent labelling, fragments in pools of five, 200 uM each, 4 °C; conditions: 24 h, 4 °C, pool of five; 200 µM; covalent
T1 construct: residues 14-235, E. coli, pNIC28-Bsa4, N-terminal His6 tag removed by TEV, construct 26672 Da
Method: (§1) Incubations were performed at 200 μM for each compound and 2 μM of protein (10 μM for BSA) for 24 h at 4 °C with moderate shaking. Incubation buffers varied among proteins (PBS pH 7.4 for QSOX1 and BSA; 10 mM HEPES pH 7.5, 0.3 M NaCl, 0.5 mM TCEP for PCAF, UPS8, and NUDT7; […]; 10 mM Na2HPO4 pH 7.5 100 mM NaCl 5 mM β-mercaptoethanol for NV3CP; 20 mM Na phosphate pH 7.5 for NNMT; […]. The reaction was stopped by quenching with formic acid, 0.4% final concentration. Each protein was incubated with the electrophilic library in pools of five compounds per well. The pool’s composition maximized the difference in mass between fragments in the same well. Incubations were performed with each fragment at 200 μM, for 24 h at 4 °C, to allow the screening of proteins that are not stable for long time periods at higher temperatures. Following incubation, we used intact protein [compound left out] chromatography/mass spectrometry (LC/MS) to identify the fragments and quantify their labeling (Figure 3A). […] There was good agreement between the percent of labeling of NUDT7 by 100 random individual compounds and that obtained in pools of five (R^2=0.78; Figure S6 and Data set 2 in the Supporting Information).

PCAF = target: T2, PCAF (Homo sapiens, UniProt Q92831); parameters: Intact protein LC/MS covalent labelling, fragments in pools of five, 200 uM each, 4 °C; conditions: 24 h, 4 °C, pool of five; 200 µM; covalent
T2 construct: gene KAT2B
Method: as §1

OTUB2 (OTUB2A) = target: T3, OTUB2 (OTUB2A) (Homo sapiens, UniProt Q96DC9); parameters: Intact protein LC/MS covalent labelling, fragments in pools of five, 200 uM each, 4 °C; conditions: 24 h, 4 °C, pool of five; 200 µM; covalent
T3 construct: full length residues 1-234, E. coli BL21(DE3)-R3, His tag removed by TEV, construct 27312 Da
T3 sequence (Q96DC9 1-234): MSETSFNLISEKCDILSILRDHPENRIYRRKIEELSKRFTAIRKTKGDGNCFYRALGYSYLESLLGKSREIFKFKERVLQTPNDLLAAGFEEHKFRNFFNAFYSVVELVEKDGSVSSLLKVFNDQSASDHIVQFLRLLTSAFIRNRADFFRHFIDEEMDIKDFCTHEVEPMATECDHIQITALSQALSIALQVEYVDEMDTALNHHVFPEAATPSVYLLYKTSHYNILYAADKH
Method: as §1

BSA = target: T4, BSA (Bos taurus, UniProt P02769); parameters: Intact protein LC/MS covalent labelling, fragments in pools of five, 200 uM each, 4 °C; conditions: 24 h, 4 °C, pool of five; 200 µM; covalent
T4 construct: gene ALB
Method: as §1

in vitro [3] = experiment: in vitro; parameters: species or system HB2, HEK293; conditions: human, ccd841 cells

T2 sequence (Q92831 whole entry, the tested form may be a part): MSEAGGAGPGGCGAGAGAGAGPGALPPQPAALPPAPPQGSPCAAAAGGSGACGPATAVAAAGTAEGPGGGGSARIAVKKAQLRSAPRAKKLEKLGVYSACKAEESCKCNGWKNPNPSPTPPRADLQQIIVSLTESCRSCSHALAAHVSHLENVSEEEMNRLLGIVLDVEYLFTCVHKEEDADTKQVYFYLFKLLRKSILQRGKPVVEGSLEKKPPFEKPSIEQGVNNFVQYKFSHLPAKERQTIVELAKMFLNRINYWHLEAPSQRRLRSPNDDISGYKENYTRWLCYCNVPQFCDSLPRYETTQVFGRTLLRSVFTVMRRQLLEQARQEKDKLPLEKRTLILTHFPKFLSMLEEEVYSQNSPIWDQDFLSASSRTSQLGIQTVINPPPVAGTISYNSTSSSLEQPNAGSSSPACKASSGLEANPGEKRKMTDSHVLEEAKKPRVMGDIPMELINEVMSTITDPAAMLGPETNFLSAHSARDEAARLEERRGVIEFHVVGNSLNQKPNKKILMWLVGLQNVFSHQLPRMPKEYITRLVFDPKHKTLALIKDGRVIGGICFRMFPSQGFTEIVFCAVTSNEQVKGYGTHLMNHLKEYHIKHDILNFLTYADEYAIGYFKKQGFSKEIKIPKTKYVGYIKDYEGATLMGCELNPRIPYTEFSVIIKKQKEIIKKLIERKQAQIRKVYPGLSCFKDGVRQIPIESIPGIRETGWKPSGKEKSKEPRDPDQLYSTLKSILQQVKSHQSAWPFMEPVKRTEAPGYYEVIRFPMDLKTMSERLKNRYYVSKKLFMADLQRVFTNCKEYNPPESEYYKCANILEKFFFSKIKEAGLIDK
T1 sequence (P0C024 14-235): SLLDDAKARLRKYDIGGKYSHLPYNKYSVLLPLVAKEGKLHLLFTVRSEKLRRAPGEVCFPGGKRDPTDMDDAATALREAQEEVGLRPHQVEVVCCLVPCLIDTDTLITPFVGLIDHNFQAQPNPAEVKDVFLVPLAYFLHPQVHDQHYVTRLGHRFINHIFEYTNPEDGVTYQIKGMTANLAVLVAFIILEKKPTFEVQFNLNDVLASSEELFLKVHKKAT
T4 sequence (P02769 whole entry, the tested form may be a part): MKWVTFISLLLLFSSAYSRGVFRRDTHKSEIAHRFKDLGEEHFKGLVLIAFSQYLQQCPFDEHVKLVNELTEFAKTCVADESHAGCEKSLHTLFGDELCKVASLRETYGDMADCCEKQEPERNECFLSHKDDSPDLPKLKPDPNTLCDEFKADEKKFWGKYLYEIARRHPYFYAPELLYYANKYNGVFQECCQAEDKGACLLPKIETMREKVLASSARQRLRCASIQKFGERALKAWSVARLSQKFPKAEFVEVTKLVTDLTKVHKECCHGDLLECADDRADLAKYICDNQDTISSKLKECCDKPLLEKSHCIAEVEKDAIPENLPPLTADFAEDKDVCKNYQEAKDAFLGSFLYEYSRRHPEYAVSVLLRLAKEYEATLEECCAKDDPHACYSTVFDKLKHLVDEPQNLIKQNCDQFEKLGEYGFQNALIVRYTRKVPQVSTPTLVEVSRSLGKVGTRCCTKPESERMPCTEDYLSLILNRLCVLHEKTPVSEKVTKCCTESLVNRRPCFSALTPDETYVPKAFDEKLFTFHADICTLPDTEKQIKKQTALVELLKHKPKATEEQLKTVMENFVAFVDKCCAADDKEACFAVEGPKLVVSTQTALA

Row | NUDT7 (NUDT7) | PCAF (PCAF) | OTUB2 (OTUB2 (OTUB2A)) | BSA (BSA) | SMILES | viability at 48 h, 10 µM (in vitro [1]) [%] | viability at 48 h, 10 µM (in vitro [2]) [%] | viability at 48 h, 10 µM (in vitro [3]) [%]
1 | 0.08 | 0 | 0 | 0 | Cl.O=C(CCl)N1CCN(Cc2cccs2)CC1 [PCM-0102243] | 45.7 | 43.5 | 77.1
2 | 0.53 | 0 | 0.29 | 0.15 | O=C(CCl)Nc1nc(-c2ccc(F)c(F)c2)cs1 [PCM-0102244] | 6.9 | 0.9 | 76.5
3 | 0.12 | 0 | 0.15 | 0 | NC(=O)C1CN(C(=O)CCl)c2ccccc2O1 (centres unmarked) [PCM-0102245] | 58.4 | 31.8 | 60.8
4 | 0.83 | 0 | 0.14 | 0 | Cc1cc(C)c2nc(NC(=O)CCl)sc2c1 [PCM-0102246] | 51.6 | 67.3 | 79.8
5 | 0 | 0 | 0 | 0 | O=C(CCl)Nc1cc(F)ccc1C(=O)O [PCM-0102247] | 106 | 97 | 95.7
6 | 0 | 0 | 0.43 | 0 | Cc1ccc(C)c(-n2nc(C)cc2NC(=O)CCl)c1 [PCM-0102249] | 45.3 | 25.4 | 64
7 | 0.05 | 0 | 0 | 0 | CC1CCC(C#N)(N(C)C(=O)CCl)CC1 (centres unmarked) [PCM-0102251] | 16.5 | 3.9 | 55.4
8 | 0 | 0 | 0 | 0 | COc1ccc(N2CCN(C(=O)CCl)CC2)cc1 [PCM-0102254] | 33.8 | 42.2 | 84.2
9 | 0.19 | 0 | 0.29 | 0 | CC(NC(=O)CCl)c1ccccc1Br (centres unmarked) [PCM-0102256] | 39 | 27.3 | 67.3
10 | 0.07 | 0 | 0 | 0 | O=C(CCl)N1CCN(C(=O)Nc2ccccc2)CC1 [PCM-0102257] | 34.8 | 8.5 | 56.6
11 | 0.21 | 0 | 0 | 0 | O=C(CCl)Nc1cc(Cl)ccc1-n1cncn1 [PCM-0102258] | 53.8 | 11.7 | 51.7
12 | 0 | 0 | 0 | 0 | CN(CC(=O)NC(C)(C)C)C(=O)CCl [PCM-0102259] | 97.2 | 69 | 85.2
13 | 0 | 0 | 0.67 | 0 | CC(C)(C)C1CCc2sc(C(=O)NNC(=O)CCl)cc2C1 (centres unmarked) [PCM-0102260] | 64 | 10.2 | 29.7
14 | 0.3 | 0 | 0.09 | 0 | Cc1c(C#N)c(NC(=O)CCl)n(-c2ccccc2)c1C [PCM-0102261] | 42.5 | 7.8 | 75.1
15 | 0 | 0 | 0.63 | 0 | Cc1nc(-c2cccc(NC(=O)CCl)c2)cs1 [PCM-0102262] | 5.4 | 1.7 | 29.7
16 | 0.17 | 0 | 0.31 | 0 | CC(C)C(C#N)N1CCN(C(=O)CCl)CC1 (centres unmarked) [PCM-0102263] | 64 | 13.9 | 65.2
17 | 0 | 0 | 0.13 | 0 | Cc1sc2nc(-c3cccc(NC(=O)CCl)c3)[nH]c(=O)c2c1C [PCM-0102264] | 64.6 | 61.2 | 92.8
18 | 0.19 | 0 | 0.06 | 0 | Cc1csc(N(C(=O)CCl)c2ccccc2)n1 [PCM-0102265] | 12.6 | 48.6 | 36.8
19 | 0.11 | 0 | 0 | 0 | O=C(CCl)N1c2ccccc2OCC1c1ccccc1 (centres unmarked) [PCM-0102266] | 56.8 | 52.1 | 57.5
20 | 0 | 0 | 0.51 | 0 | Cc1ccc(C(C)NC(=O)CCl)cc1C (centres unmarked) [PCM-0102270] | 80.2 | 67.9 | 78.1
21 | 0.2 | 0 | 0 | 0 | CC(=O)c1ccc(N2CCN(C(=O)CCl)CC2)c(F)c1 [PCM-0102273] | 4.9 | 2.2 | 38.5
22 | 0.32 | 0 | 0.73 | 0 | CC(NC(=O)CCl)c1cccc2ccccc12 (centres unmarked) [PCM-0102275] | 61.6 | 47.3 | 70.5
23 | 0.24 | 0 | 0.36 | 0 | O=C(CCl)Nc1ccc(OC(F)(F)F)cc1 [PCM-0102276] | 13.3 | 9.2 | 64.9
24 | 0.09 | 0 | 0.24 | 0.09 | O=C(CCl)Nc1ccc(I)cc1 [PCM-0102278] | 18.7 | 4.9 | 57.1
25 | 0 | 0 | 0.1 | 0.09 | CNC(=O)CNC(=O)CCl [PCM-0102279] | 108 | 112 | 97.3
26 | 0 | 0 | 0.22 | 0 | O=C(CCl)NCc1cccs1 [PCM-0102280] | 94.3 | 82 | 81.3
27 | 0 | 0 | 0 | 0 | CC(=O)c1cccc(N2Cc3ccccc3C2=NC(=O)CCl)c1 [PCM-0102283] | 99.6 | 75 | 99.5
28 | 0 | 0 | 0.28 | 0 | O=C(CCl)Nc1cc(F)ccc1F [PCM-0102284] | 38.2 | 17.7 | 58.8
29 | 0 | 0 | 0 | 0 | CN(C)S(=O)(=O)c1ccc2c(c1)CCCN2C(=O)CCl [PCM-0102285] | 21.6 | 2.2 | 53.5
